From patent US20130115671A1, “ENZYMES FROM CONIDIOBOLUS BREFELDIANUS AND PROCESS FOR PREPARATION THEREOF” (Council of Scientific and Industrial Research, priority 2010, published 2013)
Several values for one entry are separate records, joined by “and”; a condition that tells them apart may be missing. Equal values may be shown once.

Key:
[1] = test system: protease of Conidiobolus brefeldianus MTCC 5185; assay: Effect of inhibitors on protease activity (PMSF, EDTA, iodoacetate, DMSO); assay type: biochemical; settings: pre-incubated 1 h, pH 8.0; 20 mM EDTA, 10 mM Iodoacetate, 1 mM PMSF (in DMSO), DMSO
Source text: This example illustrates the effect of inhibitors on protease activity of Conidiobolus brefeldianus MTCC 5185. Following inhibitors were studied: phenylmethylsulfonyl fluoride (PMSF), ethylene-diaminetetraacetic acid (EDTA), iodoacetic acid, and dimeth ylsulphoxide (DMSO). The crude culture filtrate grown as described in example 3 was concentrated by ultra-filtration on PM-10 and YM-3 membranes as described in example 27 and used for inhibition studies. Both the protease preparations were pre-incubated in 100 mM Tris-HCl buffer (pH 8.0) with each inhibitor for 1 h and the residual protease activity was measured at 50° C., pH 9.0. Protease without inhibitor served as control.

[2] = test system: protease from Conidiobolus brefeldianus MTCC 5185; assay: Stability of protease in presence of organic solvents at 37° C.; assay type: physicochemical; settings: 20% (v/v) solvent
Procedure: (§1) This example illustrates the effect of water miscible as well as water immiscible organic solvents on stability of crude protease at 37° C. […] Samples were removed at different time intervals and residual activity was estimated. Sample without organic solvent served as control.

[3] = test system: protease from Conidiobolus brefeldianus MTCC 5185; assay: Stability of protease in presence of organic solvents at 28° C.; assay type: physicochemical; parameters: key to residual activity of protease, 0 h / residual activity of protease, 12 h: % of initial activity with respective solvent (initial = 100%); settings: crude protease, 20% (v/v) solvent
Procedure: as §1, with “28°” for “37°”, “control. Initial activity with respective solvents was taken as 100% (Table 17). […] (Table 17).” for “control.”

[4] = test system: protease of Conidiobolus brefeldianus MTCC 5185; assay: Effect of inhibitors on protease activity (TPCK, TLCK, Benzamidine); assay type: biochemical; settings: 5 mM inhibitor, crude protease pre-incubated 30 min, pH 8.0
Procedure: This example illustrates the effect of inhibitors on protease activity of Conidiobolus brefeldianus MTCC 5185. Following inhibitors were studied: N-tosyl-L-phenylalanine chloromethyl ketone (TPCK), N-tosyl-L-lysine chloromethyl ketone (TLCK), and Benzamidine. Crude protease was pre-incubated with each inhibitor in 100 mM Tris-HCl buffer (pH 8.0) for 30 min and the residual protease activity was measured 50° C., pH 9.0. Protease without inhibitor served as control.

Row | Compound | Inhibition (%) PM-10 Retentate [1] | Inhibition (%) YM-3 Retentate [1] | Residual Activity (%) of protease, 30 min ([2]; pH 7, 30 min) | Residual Activity (%) of protease, 60 min ([2]; pH 7, 60 min) | Residual Activity (%) of protease, 120 min ([2]; pH 7, 120 min) | Residual Activity (%) of protease, 240 min ([2]; pH 7, 240 min) | Residual Activity (%) of protease, 0 ([2]; crude protease, pH 7, 0 min) | residual activity of protease, 0 h ([3]; 0 h) | residual activity of protease, 5 h ([3]; 5 h) | residual activity of protease, 12 h ([3]; 12 h) | Inhibition (%) [4]
1 | C[S+](C)[O-] [DMSO, dimethylsulphoxide] | 3.02% | 1.37% | 69.48% | 68.94% | 48.70% | 28.53% | 100% | 100 | 98.12 | 54.55 | 
2 | N-tosyl-L-lysine chloromethyl ketone [TLCK] |  |  |  |  |  |  |  |  |  |  | 29% and 29.22%
3 | N-tosyl-L-phenylalanine chloromethyl ketone [TPCK] |  |  |  |  |  |  |  |  |  |  | 9% and 9.02%
